Test results taken from US7572818B2, “2-pyridylethylbenzamide derivative” (Bayer Cropscience S.A., priority 2002, dated 2009).

Tested on: Alternaria brassicae
Test: In vivo test of activity on Alternaria brassicae (crucifer black spot) on radish
Details: preventive spray 24 h before inoculation
Procedure: In Vivo Test of Activity on Alternaria brassicae (Crucifer Black Spot)
An aqueous solution of the active material to be tested is prepared at a concentration of 2 g/l by grinding in solution 1 or solution 2:
• Water • Tween 80 diluted to 10% in water: 5 μl/mg of active material • Clay in a sufficient amount for active material+clay to equal 100 mg; Solution 2
Concentrated solution containing surfactants and adjuvants conventionally used: 200 μl/mg of active material.
The aqueous solution is diluted with water so as to obtain the desired concentration.
Radishes of the Pernot variety are sown in a 50/50 pozzolan/peat substrate and maintained at 18-22° C. The treatment is carried out by spraying the aqueous suspension. The untreated control plants are sprayed with water. 24 hours after treatment, the plants are inoculated by spraying a solution of Alternaria brassicae spores (40 000 spores/ml) originating from a 12-day culture.
The radish plants are then maintained at 18-20° C. in a humid atmosphere. The effectiveness of the products is evaluated relative to the control plants after seven to eight days of incubation.
The effectiveness of the molecules is estimated, at 500 g/ha, 250 g/ha or 330 ppm, by the percentage of control relative to untreated plants. Under these conditions, good effectiveness is defined as more than 80% effectiveness. Average effectiveness is defined as an effectiveness between 50 and 80%. Poor effectiveness is defined as an effectiveness between 10 and 50% and zero effectiveness is defined as less than 10% effectiveness.

Row | Compound | effectiveness (percentage of control relative to untreated plants) (330 ppm) | further results
1 | COc1ccc(C(=O)NCCc2ncc(C(F)(F)F)cc2Cl)cc1OC [Compound A-13] | – | effectiveness (percentage of control relative to untreated plants) (500 g/ha): good to average
2 | COc1cc(OC)cc(C(=O)NCCc2ncc(C(F)(F)F)cc2Cl)c1 [Compound A-14] | – | effectiveness (percentage of control relative to untreated plants) (500 g/ha): good to average
3 | O=C(NCCc1ncc(C(F)(F)F)cc1Cl)c1cccc(C(F)(F)F)c1 [Compound A-28] | – | effectiveness (percentage of control relative to untreated plants) (250 g/ha): good to average
4 | O=C(NCCc1ncc(C(F)(F)F)cc1Cl)c1ccccc1[N+](=O)[O-] [Compound A-29] | – | effectiveness (percentage of control relative to untreated plants) (250 g/ha): good to average
5 | O=C(NCCc1ncc(C(F)(F)F)cc1Cl)c1cc(F)c(F)cc1F [Compound A-41] | – | effectiveness (percentage of control relative to untreated plants) (250 g/ha): good to average
6 | O=C(NCCc1ncc(C(F)(F)F)cc1Cl)c1cccc(Cl)c1Cl [Compound A-48] | good to average | –
7 | O=C(NCCc1ncc(C(F)(F)F)cc1Cl)c1cc(Cl)ccc1Cl [Compound A-49] | good to average | –
8 | O=C(NCCc1ncc(C(F)(F)F)cc1Cl)c1ccccc1O [Compound A-52] | good to average | –
9 | Cc1cccc(C(=O)NCCc2ncc(C(F)(F)F)cc2Cl)c1C [Compound A-60] | good to average | –
10 | Cc1ccc(C)c(C(=O)NCCc2ncc(C(F)(F)F)cc2Cl)c1 [Compound A-62] | good to average | –
11 | O=C(NCCc1ncc(C(F)(F)F)cc1Cl)c1cc(C(F)(F)F)ccc1C(F)(F)F [Compound A-72] | good to average | –
12 | O=C(NCCc1ncc(C(F)(F)F)cc1Cl)c1ccc(C(F)(F)F)cc1C(F)(F)F [Compound A-74] | good to average | –
13 | O=C(NCCc1ncc(C(F)(F)F)cc1Cl)c1c(C(F)(F)F)ccc(Cl)c1F [Compound A-75] | good to average | –
14 | Cc1c(C(=O)NCCc2ncc(C(F)(F)F)cc2Cl)cccc1[N+](=O)[O-] [Compound A-77] | good to average | –
15 | Cc1ccc([N+](=O)[O-])cc1C(=O)NCCc1ncc(C(F)(F)F)cc1Cl [Compound A-79] | good to average | –
16 | Cc1cc(Br)ccc1C(=O)NCCc1ncc(C(F)(F)F)cc1Cl [Compound A-80] | good to average | –
17 | COc1cc(OC)c(C(=O)NCCc2ncc(C(F)(F)F)cc2Cl)cc1OC [Compound A-84] | good to average | –
18 | COc1ccc(OC)c(C(=O)NCCc2ncc(C(F)(F)F)cc2Cl)c1 [Compound A-85] | good to average | –
19 | CCOc1ccccc1C(=O)NCCc1ncc(C(F)(F)F)cc1Cl [Compound A-86] | good to average | –
20 | CCCOc1ccccc1C(=O)NCCc1ncc(C(F)(F)F)cc1Cl [Compound A-91] | good to average | –
21 | COc1ccc(C(C)(C)C)cc1C(=O)NCCc1ncc(C(F)(F)F)cc1Cl [Compound A-92] | good to average | –
22 | CSc1ccc(Cl)c(C(=O)NCCc2ncc(C(F)(F)F)cc2Cl)c1 [Compound A-99] | good to average | –
23 | O=C(NCCc1ncc(C(F)(F)F)cc1Cl)c1cc(Cl)ccc1Br [Compound A-100] | good to average | –
24 | O=C(NCCc1ncc(C(F)(F)F)cc1Cl)c1cc(F)c(F)cc1Cl [Compound A-107] | good to average | –

Row | Compound | effectiveness (percentage of control relative to untreated plants) (330 ppm) | further results
25 | O=C(NCCc1ncc(C(F)(F)F)cc1Cl)c1ccc(Cl)cc1Br [Compound A-110] | good to average | –
26 | O=C(NCCc1ncc(C(F)(F)F)cc1Cl)c1c(F)cccc1Br [Compound A-112] | good to average | –
27 | O=C(NCCc1ncc(C(F)(F)F)cc1Cl)c1c(F)ccc(F)c1Cl [Compound A-113] | good to average | –
28 | O=C(NCCc1ncc(C(F)(F)F)cc1Cl)c1cccc(F)c1Br [Compound A-122] | good to average | –
29 | Cc1cc(C(=O)NCCc2ncc(C(F)(F)F)cc2Cl)c(Cl)c(C)c1F [Compound A-123] | good to average | –
30 | Cc1ccc(F)c(C(=O)NCCc2ncc(C(F)(F)F)cc2Cl)c1Cl [Compound A-124] | good to average | –
31 | CSc1cc(Cl)ccc1C(=O)NCCc1ncc(C(F)(F)F)cc1Cl [Compound A-127] | good to average | –
32 | CS(=O)(=O)c1cc(Cl)ccc1C(=O)NCCc1ncc(C(F)(F)F)cc1Cl [Compound A-128] | good to average | –
33 | CS(=O)(=O)c1ccc(C(=O)NCCc2ncc(C(F)(F)F)cc2Cl)c(Cl)c1O [Compound A-136] | good to average | –
34 | CS(=O)(=O)c1ccc(C(=O)NCCc2ncc(C(F)(F)F)cc2Cl)c(Br)c1 [Compound A-137] | good to average | –
35 | CS(=O)(=O)c1ccc(C(=O)NCCc2ncc(C(F)(F)F)cc2Cl)c(C(F)(F)F)c1 [Compound A-138] | good to average | –
36 | CS(=O)(=O)c1cc(C(F)(F)F)ccc1C(=O)NCCc1ncc(C(F)(F)F)cc1Cl [Compound A-139] | good to average | –
37 | O=C(NCCc1ncc(C(F)(F)F)cc1Cl)c1ccc(Cl)c(Br)c1 [Compound A-141] | good to average | –
38 | CSc1ccc(C(=O)NCCc2ncc(C(F)(F)F)cc2Cl)c(C)c1 [Compound A-142] | good to average | –
39 | CSc1cc(C(F)(F)F)ccc1C(=O)NCCc1ncc(C(F)(F)F)cc1Cl [Compound A-143] | good to average | –
40 | CSc1c(C(=O)NCCc2ncc(C(F)(F)F)cc2Cl)ccc(Cl)c1Cl [Compound A-144] | good to average | –
41 | CSc1c(C(=O)NCCc2ncc(C(F)(F)F)cc2Cl)ccc(Cl)c1Br [Compound A-146] | good to average | –
42 | O=C(NCCc1ncc(C(F)(F)F)cc1Cl)c1ccc(Cl)c(C(F)(F)F)c1 [Compound A-147] | good to average | –
43 | COc1c(F)ccc(C(=O)NCCc2ncc(C(F)(F)F)cc2Cl)c1SC [Compound A-148] | good to average | –
44 | CSc1ccc(C(=O)NCCc2ncc(C(F)(F)F)cc2Cl)c(Br)c1 [Compound A-150] | good to average | –
45 | CC(C)c1c(Br)cccc1C(=O)NCCc1ncc(C(F)(F)F)cc1Cl [Compound A-151] | good to average | –
46 | CCc1cc(Br)ccc1C(=O)NCCc1ncc(C(F)(F)F)cc1Cl [Compound A-152] | good to average | –
47 | Cc1cc(C(=O)NCCc2ncc(C(F)(F)F)cc2Cl)c([N+](=O)[O-])cc1C [Compound A-156] | good to average | –
